Laboratory results published in article PMC10165945 (Journal of medicinal chemistry, 2013).
Entries after “also recorded” stand apart in the source; their conditions may differ.

Assays:
[1] = biological target: T1, recombinant human IDE (Homo sapiens, UniProt P14735); conditions: cited from earlier work
[2] = biological target: T1, recombinant human IDE; conditions: cited from earlier work; remark: listed apart in the source
[3] = biological target: T1, recombinant human IDE; conditions: cited from earlier work; remark: listed apart in the source
[4] = biological target: T2, MMP7 (Homo sapiens, UniProt P09237); test: Zinc-metalloprotease selectivity dose-response, common substrate OmniMMP: MMP7; assay type: biochemical; conditions: Figure 3 dose-response curves
T2 sequence (P09237 95-267): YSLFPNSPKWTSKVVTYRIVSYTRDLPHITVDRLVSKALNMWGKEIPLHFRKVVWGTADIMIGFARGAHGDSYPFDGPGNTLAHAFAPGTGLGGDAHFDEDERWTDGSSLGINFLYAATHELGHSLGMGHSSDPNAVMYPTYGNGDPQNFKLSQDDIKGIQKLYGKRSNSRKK

[5] = biological target: T1, recombinant human IDE; test: IDE activity assay, Aß degradation; assay type: biochemical
[6] = biological target: T1, recombinant human IDE; test: IDE activity assay, degradation of fluorogenic peptide substrate FRET1; assay type: biochemical; conditions: for Ki: n = 3; for activity against IDE in words: FRET1 assay
[7] = test system: neprilysin (NEP), endothelin-converting enzyme-1 (ECE1), ACE, and MMP-2 and -7; test: Zinc-metalloprotease selectivity panel versus IDE, common substrate OmniMMP; assay type: biochemical
[8] = biological target: T1, recombinant human IDE; test: IDE activity assay, insulin degradation; assay type: biochemical

T1 sequence (P14735 whole entry): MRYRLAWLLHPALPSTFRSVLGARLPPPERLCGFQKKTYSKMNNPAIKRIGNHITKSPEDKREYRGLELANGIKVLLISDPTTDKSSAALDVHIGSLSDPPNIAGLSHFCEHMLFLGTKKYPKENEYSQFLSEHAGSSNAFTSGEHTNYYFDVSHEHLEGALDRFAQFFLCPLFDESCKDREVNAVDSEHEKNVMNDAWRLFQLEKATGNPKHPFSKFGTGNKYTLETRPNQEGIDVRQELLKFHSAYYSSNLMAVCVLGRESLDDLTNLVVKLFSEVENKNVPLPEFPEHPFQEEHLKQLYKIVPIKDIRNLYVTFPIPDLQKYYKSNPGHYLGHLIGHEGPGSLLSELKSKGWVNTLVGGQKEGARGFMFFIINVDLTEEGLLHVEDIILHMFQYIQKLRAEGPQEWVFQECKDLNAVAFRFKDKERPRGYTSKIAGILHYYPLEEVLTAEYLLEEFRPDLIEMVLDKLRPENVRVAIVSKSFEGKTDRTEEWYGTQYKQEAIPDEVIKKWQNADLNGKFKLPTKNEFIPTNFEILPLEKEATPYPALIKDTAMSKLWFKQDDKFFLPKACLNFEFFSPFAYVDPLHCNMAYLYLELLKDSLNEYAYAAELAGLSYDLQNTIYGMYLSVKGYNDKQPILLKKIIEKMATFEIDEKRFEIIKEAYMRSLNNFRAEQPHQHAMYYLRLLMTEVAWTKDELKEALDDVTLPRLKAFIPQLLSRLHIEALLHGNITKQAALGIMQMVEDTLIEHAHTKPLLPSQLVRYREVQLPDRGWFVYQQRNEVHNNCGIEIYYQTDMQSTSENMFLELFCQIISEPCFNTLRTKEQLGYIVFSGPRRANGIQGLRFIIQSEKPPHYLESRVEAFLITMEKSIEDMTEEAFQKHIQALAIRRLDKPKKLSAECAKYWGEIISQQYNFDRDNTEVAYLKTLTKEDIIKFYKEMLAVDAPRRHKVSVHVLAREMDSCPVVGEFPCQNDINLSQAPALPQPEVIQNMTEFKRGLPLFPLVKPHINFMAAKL

Compound: Nc1ncnc2c1ncn2[C@@H]1O[C@H](COP(=O)(O)OP(=O)(O)OP(=O)(O)O)[C@@H](O)[C@H]1O [ATP]
- effect on degradation of insulin by IDE [1]: inhibits
- effect on degradation of Aß by IDE [2]: inhibits
- effect on degradation of FRET1 by IDE [3]: profoundly activates

Compound: N=C(N)NCCC[C@H](NC(=O)[C@@H](CC(=O)NO)Cc1ccc2ccccc2c1)C(=O)N[C@@H](Cc1c[nH]c2ccccc12)C(=O)N[C@@H](CCC(=O)O)C(N)=O [inhibitor 1a]
- MMP7 inhibition in words [4]: rather potently inhibited

Compound: (S)-5-Amino-4-((S)-2-((S)-5-guanidino-2-((2S,3R)-3-hydroxy-4-(hydroxyamino)-2-(naphthalen-2-ylmethyl)-4-oxobutanamido)pentanamido)-3-(1H-indol-2-yl)propanamido)-5-oxopentanoic acid [inhibitor 8b]
- Ki ([5]; read-out: ki^app, nM FAßB, Table 5, substrate Aß 200 nM, n = 3): 927 ± 120 nM
- Ki ([6]; read-out: ki (nM) (FRET1), Table 1, FRET1 5 μM, 22 °C): 103 ± 6.9 nM
- Ki ([6]; read-out: ki, nM (FRET1), Table 2, truncation, FRET1 5 μM): 103 ± 7 nM
- Ki ([6]; read-out: ki^app, nM FRET1, Table 5, substrate FRET1 5 μM): 103 ± 7 nM
- inhibition of the other proteases tested, in words ([7]; concentrations up to 10 μM): no or only partial inhibition
- Ki ([8]; read-out: ki^app, nM Insulin, Table 5, substrate insulin 2 nM, n = 3): 1890 ± 410 nM

Compound: N=C(N)NCCC[C@H](NC(=O)C(CC(=O)NO)Cc1ccc2ccccc2c1)C(N)=O (stereo in doubt) [inhibitor 9b, (R)-N^1-((S)-1-amino-5-guanidino-1-oxopentan-2-yl)-N^4-hydroxy-2-(naphthalen-2-ylmethyl)succinamide]
- activity against IDE in words [6]: inactive

Compound: N=C(N)NCCC[C@@H](NC(=O)[C@@H](Cc1c[nH]c2ccccc12)NC(=O)[C@H](N)CCC(=O)O)C(=O)N[C@@H](CC(=O)NO)Cc1ccc2ccccc2c1 [inhibitor 15, Glu-Trp-Arg-2Nap-Hx]
- fold higher ki^app for insulin degradation relative to FRET1 ([8]; derived from Table 5): > 60 fold

Compound: C=CCOC(=O)[C@H](CCCNC(=N)N)NC(=O)C(CC(=O)NO)Cc1ccc2ccccc2c1 (stereo in doubt) [inhibitor 14a, (S)-Allyl5-guanidino-2-((S)-4-(hydroxyamino)-2-(naphthalen-2-ylmethyl)-4-oxobutanamido)pentanoate]
- fold more potent than the parent amide, 9a ([6]; ki, FRET1): ~ 13 fold
- fold more potent against IDE vis-à-vis the other proteases tested ([7]; OmniMMP substrate): > 100 fold

Compound: CC(=O)N[C@H](CCC(=O)NCCNc1cccc2c(S(=O)(=O)O)cccc12)C(=O)N[C@H](Cc1ccc(O)cc1)C(=O)N[C@H](Cc1ccc(C(=O)c2ccccc2)cc1)C(=O)N[C@@H](CC(=O)NO)Cc1ccc2ccccc2c1 [inhibitor 17, Ac-Glu(EDANS)-Tyr-Bpa-2Nap-Hx]
- fold lower ki^app for Aß degradation relative to insulin degradation ([5]; derived from Table 5): ~ 300 fold
- fold lower ki^app for Aß degradation relative to ki for FRET1 degradation ([5]; derived from Table 5): > 30 fold

Compound: (2R,3S)-N^1-((S)-1-Amino-5-guanidino-1-oxopentan-2-yl)-N^4,3-dihydroxy-2-(naphthalen-2-ylmethyl)succinamide [inhibitor 12a]
- activity against IDE in words [6]: abolish activity; also recorded: substantial decreases in potency

Compound: (2S,3R)-N^1-((S)-1-amino-5-guanidino-1-oxopentan-2-yl)-N^4,3-dihydroxy-2-(naphthalen-2-ylmethyl)succinamide [inhibitor 12b]
- activity against IDE in words [6]: abolish activity; also recorded: substantial decreases in potency
